Measured values published in ChEMBL document CHEMBL3400054, “Polybrominated diphenyl ethers with potent and broad spectrum antimicrobial activity from the marine sponge Dysidea” (2015).
In brackets after ≈: the same amount, converted by molar mass.

Key:
Type in all cases: functional
[1] = system: Bacillus cereus; assay: Antimicrobial activity against Bacillus cereus incubated at 37 degC for 24 hrs by broth macrodilution method
[2] = system: Listeria monocytogenes; assay: Antimicrobial activity against Listeria monocytogenes incubated at 37 degC for 24 hrs by broth macrodilution method
[3] = system: Staphylococcus aureus; assay: Antimicrobial activity against methicillin-resistant Staphylococcus aureus incubated at 37 degC for 24 hrs by broth macrodilution method
[4] = system: Klebsiella pneumoniae; assay: Antimicrobial activity against Klebsiella pneumoniae ATCC 13883 incubated at 37 degC for 24 hrs by broth macrodilution method; settings: ATCC 13883, 24 h
[5] = system: Streptococcus pneumoniae; assay: Antimicrobial activity against Streptococcus pneumoniae incubated at 37 degC for 24 hrs by broth macrodilution method
[6] = system: Salmonella sp.; assay: Antimicrobial activity against Salmonella sp. incubated at 37 degC for 24 hrs by broth macrodilution method
[7] = system: Clostridioides difficile; assay: Antimicrobial activity against Clostridium difficile ATCC 9689 incubated at 37 degC for 24 hrs by broth macrodilution method; settings: ATCC 9689, 24 h
[8] = system: Campylobacter jejuni; assay: Antimicrobial activity against Campylobacter jejuni ATCC 33291 incubated at 37 degC for 24 hrs by broth macrodilution method; settings: ATCC 33291, 24 h
[9] = system: Escherichia coli; assay: Antimicrobial activity against Escherichia coli O157:H7 incubated at 37 degC for 24 hrs by broth macrodilution method; settings: O157:H7, 24 h
[10] = system: Neisseria gonorrhoeae; assay: Antimicrobial activity against Neisseria gonorrhoeae incubated at 37 degC for 24 hrs by broth macrodilution method
[11] = system: Staphylococcus aureus; assay: Antimicrobial activity against methicillin-sensitive Staphylococcus aureus incubated at 37 degC for 24 hrs by broth macrodilution method
[12] = system: Pseudomonas aeruginosa; assay: Antimicrobial activity against Pseudomonas aeruginosa incubated at 37 degC for 24 hrs by broth macrodilution method
[13] = system: Pseudomonas; assay: Antimicrobial activity against Pseudomonas incubated at 37 degC for 24 hrs by broth macrodilution method
[14] = system: Klebsiella pneumoniae; assay: Antimicrobial activity against Klebsiella pneumoniae

SMILES	MIC [1] [mg/L]	MIC [2] [mg/L]	MIC [3] [mg/L]	MIC [4] [mg/L]	MIC [5] [mg/L]	MIC [6] [mg/L]	MIC [7] [mg/L]	MIC [8] [mg/L]	MIC [9] [mg/L]	MIC [10] [mg/L]	MIC [11] [mg/L]	MIC [12] [mg/L]	MIC [13] [mg/L]	MIC [14] [mg/L]
Oc1c(Br)cc(Br)cc1Oc1ccc(Br)cc1Br	5 (≈ 9.96 µM)	1 (≈ 1.99 µM)	1 (≈ 1.99 µM)	5 (≈ 9.96 µM)	5 (≈ 9.96 µM)	10 (≈ 19.9 µM)	10 (≈ 19.9 µM)	5 (≈ 9.96 µM)	10 (≈ 19.9 µM)					
Oc1cc(Br)cc(Br)c1Oc1ccc(Br)cc1Br	0.1 (≈ 0.199 µM)	2 (≈ 3.99 µM)	0.1 (≈ 0.199 µM)	0.1 (≈ 0.199 µM)		1 (≈ 1.99 µM)	4 (≈ 7.97 µM)	5 (≈ 9.96 µM)	8 (≈ 15.9 µM)	2 (≈ 3.99 µM)	1 (≈ 1.99 µM)	16 (≈ 31.9 µM)	4 (≈ 7.97 µM)	
Oc1cc(Br)c(Br)c(Br)c1Oc1ccc(Br)cc1Br		0.1 (≈ 0.172 µM)	0.1 (≈ 0.172 µM)			10 (≈ 17.2 µM)	10 (≈ 17.2 µM)	5 (≈ 8.61 µM)						
CO[C@@]1(NC(=O)Cc2cccs2)C(=O)N2C(C(=O)O)=C(COC(N)=O)CS[C@@H]21 [CEFOXITIN]				0.25 (≈ 0.585 µM)										2 (≈ 4.68 µM)
O=C(O)c1cn(C2CC2)c2cc(N3CCNCC3)c(F)cc2c1=O [CIPROFLOXACIN]				0.125 (≈ 0.377 µM)										0.5 (≈ 1.51 µM)
C[C@@H](O)[C@H]1C(=O)N2C(C(=O)O)=C(SCCNC=N)C[C@H]12 [IMIPENEM ANHYDROUS]				0.25 (≈ 0.835 µM)										0.25 (≈ 0.835 µM)
